This note sets out measurements from patent publication US20250072422A1, “ARYLCYCLOHEXANEDIONE DERIVATIVE OR SALT THEREOF, PEST CONTROL AGENT CONTAINING SAID COMPOUND, AND METHOD FOR USING SAME” (ADEKA Corporation, priority 2021, published 2025).

One data set concerns Plutella xylostella. In words: Insecticidal test against Plutella xylostella. As to conditions: 500 ppm drug solution, Chinese cabbage seedlings with eggs immersed about 30 sec, six days after immersion, 25° C.
In another data set the test system is Dirofilaria immitis. In words: Influence evaluation test on the growth of Dirofilaria immitis. The class given is cell-based. As to conditions: 168 h, read-out: development inhibition rate from the L3 stage larva to the L4-stage larva.
Data set [1] deals with Frankliniella occidentalis. Nature of the data set: Insecticidal test against Frankliniella occidentalis. As to conditions: 500 ppm drug solution sprayed on hatched larvae on Phaseolus vulgaris leaf pieces, four days after treatment.
Description: Female adults of Frankliniella occidentalis were inoculated onto Phaseolus vulgaris leaf pieces, and after allowing them to lay eggs for one day, the female adults were removed. […] Four days after the treatment, the number of surviving larvae of this species was examined. […] In duplicate.
A further data set concerns Laodelphax striatellus. Nature of the data set: Insecticidal test against Laodelphax striatellus. Particulars: 500 ppm drug solution, rice seedlings immersed 30 seconds, three-instar insects, eight days after inoculation.

Description for Plutella xylostella: Six days after the immersion in the drug solution, the number of surviving insects was examined. […] In triplicate using 10 per plot.

As for `CC1(C)C(=O)C(C(=S)Nc2ccc(F)cc2)=C(O)CC1c1ccc(C(F)(F)F)cc1` (stereo not drawn) [1-20], the “corrected mortality, rating of assessment” value (“corrected mortality, rating” for short) in the data set on Plutella xylostella is listed as “D or higher”. In the case of `CC1C(=O)C(C(=O)Nc2ccc(F)cc2)=C(O)CC1(C)c1ccc(C(F)(F)F)cc1` (stereo not drawn) [1-3], in the data set with Plutella xylostella, the “corrected mortality, rating” value was “D or higher”. In the case of `CC1C(=O)C(C(=O)Nc2ccc(F)cc2)=C(O)C2CCc3cc(C(F)(F)F)ccc3C12` (stereo not drawn) [2-4], the “corrected mortality, rating” value in the data set with Plutella xylostella is on record as “D or higher”. Turning to `C#CCC1C(=O)C(C(=O)Nc2ccc(F)cc2)=C(O)CC1c1ccc(C(F)(F)F)cc1` (stereo not drawn) [1-7, N-(4-fluorophenyl)-5-hydroxy-3-oxo-2-(prop-2-yn-1-yl)-4′-(trifluoromethyl)-1,2,3,6-tetrahydro-[1,1′-biphenyl]-4-carboxamide], in the data set with Plutella xylostella, the “corrected mortality, rating” value is listed as “D or higher”. For the same compound, in the data set with Dirofilaria immitis, the inhibition at 10 µM is not below 50%. For `O=C(Nc1ccc(OC(F)(F)F)cc1)C1=C(O)CC(c2ccc(C(F)(F)F)cc2)C2(CCCCC2)C1=O` (stereo not drawn) [1-122], the “corrected mortality, rating” value in the data set with Plutella xylostella is “D or higher”. Consider `O=C(Nc1ccc(F)cc1)C1=C(O)CC(c2ccc(C(F)(F)F)cc2)C2(CCOCC2)C1=O` (stereo not drawn) [1-45], for which, in the data set on Plutella xylostella, the “corrected mortality, rating” value is “D or higher”. Take `O=C(Nc1ccc(Oc2ccccc2)cc1)C1=C(O)CC(c2ccc(C(F)(F)F)cc2)C2(CCCCC2)C1=O` (stereo not drawn) [1-38]: the “corrected mortality, rating” value with Plutella xylostella is recorded as “D or higher”.

Regarding `CC1(C)C(=O)C(C(=O)Nc2ccc(F)c(F)c2)=C(O)CC1c1ccc(C(F)(F)F)cc1` (stereo not drawn) [1-10], the “corrected mortality, rating” value in data set [1] is “D or higher”. As for `O=C(Nc1ccccc1-c1ccccc1)C1=C(O)CC(c2ccc(C(F)(F)F)cc2)C2(CCCCC2)C1=O` (stereo not drawn) [1-119], in the data set on Plutella xylostella, the “corrected mortality, rating” value was “D or higher”. Still for that read-out and setting: the result for `C#CCC1C(=O)C(C(=S)Nc2ccc(F)cc2)=C(O)CC1c1ccc(C(F)(F)F)cc1` (stereo not drawn) [1-18] reads “D or higher”. Take `CC1C(=O)C(C(=O)Nc2ccc(C(F)(F)F)cc2)=C(O)CC1c1ccc(C(F)(F)F)cc1` (stereo not drawn) [1-2]: in data set [1], the “corrected mortality, rating” value is “D or higher”. As to `O=C1CC2c3ccc(C(F)(F)F)cc3CCC2C(O)=C1C(=O)Nc1ccc(F)cc1` (stereo not drawn) [2-2], the “corrected mortality, rating” value with Plutella xylostella is “D or higher”. As to `O=C(Nc1ccc(F)cc1)C1=C(O)CC(c2ccc(C(F)(F)F)cc2)C2(CCCC2)C1=O` (stereo not drawn) [1-28], the “corrected mortality, rating” value in the data set on Laodelphax striatellus and with Plutella xylostella was “D or higher” each time. For `O=C(Nc1ccc(SC(F)(F)F)cc1)C1=C(O)CC(c2ccc(C(F)(F)F)cc2)C2(CCCCC2)C1=O` (stereo not drawn) [1-120], the “corrected mortality, rating” value with Plutella xylostella is given as “D or higher”.

For `CC1(C)C(=O)C(C(=O)Nc2ccc(F)nc2)=C(O)CC1c1ccc(Br)cn1` (stereo not drawn) [1-143], the “corrected mortality, rating” value with Plutella xylostella is “D or higher”. Take `O=C1C(C(=S)Nc2ccc(F)cc2)=C(O)CC(c2ccc(C(F)(F)F)cc2)C12CCCC2` (stereo not drawn) [1-48]: the “corrected mortality, rating” value in the data set with Plutella xylostella is recorded as “D or higher”.

`O=C(Nc1ccc([N+](=O)[O-])cc1)C1=C(O)CC(c2ccc(C(F)(F)F)cc2)C2(CCCCC2)C1=O` (stereo not drawn) [1-118]: the “corrected mortality, rating” value in the data set with Plutella xylostella is “D or higher”. Consider `Cl.O=C(Nc1ccc(F)cc1)C1=C(O)CC(c2ccc(C(F)(F)F)cc2)C2(CCNCC2)C1=O` (stereo not drawn) [1-136], for which the “corrected mortality, rating” value in the data set with Plutella xylostella was “D or higher”. The same measure, in the same setting: the value for `O=C1CC2c3cc(C(F)(F)F)ccc3CC2C(O)=C1C(=O)Nc1ccc(F)cc1` (stereo not drawn) [2-1] was “D or higher”; that for `CC1(C)C(=O)C(C(=O)Nc2ccc(F)cn2)=C(O)CC1c1ccc(Br)cn1` (stereo not drawn) [1-142] was “D or higher”; that for `CC1(C)C(=O)C(C(=S)Nc2ccc(OC(F)(F)F)cc2)=C(O)CC1c1ccc(C(F)(F)F)cc1` (stereo not drawn) [1-22] was “D or higher”. Regarding `CC1C(=O)C(C(=S)Nc2ccc(F)cc2)=C(O)C2CCc3cc(C(F)(F)F)ccc3C12` (stereo not drawn) [2-9], in the data set on Plutella xylostella, the “corrected mortality, rating” value is on record as “D or higher”.

Broadly, the inhibition is how much of the control response was suppressed.
